Assay results reported in US20130203706A1, “COMPOUNDS AND METHODS FOR THE TREATMENT OR PREVENTION OF FLAVIVIRUS INFECTIONS” (Vertex Pharmaceuticals Incorporated, priority 2011, published 2013).

Experiment: PK parameters of prodrugs after oral gavage to rats (plasma levels of prodrug and active metabolite by LC/MS/MS)
Format: in vivo
Details: orally by gavage, 3 mg/kg, 0.5% MC/0.5% Tween 80/99% water, plasma up to 24 hrs post dose, FIGS. 3-5
Procedure: The prodrug whose PK parameters are to be determined can be formulated as a solution in 0.5% MC/0.5% Tween 80/99% water and administered orally by gavage to rats at a dose of 3 mg/kg. Rats are weighed the day before the study. Rat plasma is sampled predose and at 15, 30 min, 1, 2, 3, 4, 6, 8, 12 and 24 hrs post dose using Instech automatic blood sampling equipment. Blood is collected in tubes containing K2-EDTA and 110 uL plasma are extracted for analysis. Rats are fed ad lib and standard IACUC and SOP protocols are followed. Plasma samples and dose samples are analyzed using LC/MS/MS for both the prodrug compound and the active metabolite. PK parameters for both analytes for each subject are calculated using the measured dose of prodrug. The PK parameters of a prodrug of the invention (compound 10) was measured as described in the preceding paragraph, and are depicted in FIG. 3.

Compound | in vivo conversion of prodrug into active metabolite
CC(C)[C@H](N)C(=O)O[C@H]1CC[C@H](N(c2cc(C#CC(C)(C)C)sc2C(=O)O)C(=O)[C@H]2CC[C@H](C)CC2)CC1 [Compound 1] | in vivo converted into their active metabolites
C[C@@H](N)C(=O)O[C@H]1CC[C@H](N(c2cc(C#CC(C)(C)C)sc2C(=O)O)C(=O)[C@H]2CC[C@H](C)CC2)CC1 [Compound 10] | in vivo converted into the —OH active metabolite
CC(C)C#Cc1cc(N(C(=O)[C@H]2CC[C@H](C)CC2)[C@H]2CC[C@H](OC(=O)[C@H](C)N)CC2)c(C(=O)O)s1 [Compound 11] | in vivo converted into their active metabolites
